Experimental data from US7432045B2 (priority 2003, dated 2008).
Read-outs that look alike come from different tables or passages of the source. Peptide text beside a SMILES is read from it. * marks the point of attachment. code b = biotin-ε-aminohexanoyl, O=C(CCCC[C@@H]1SC[C@@H]2NC(=O)N[C@@H]21)NCCCCCC(=O)*; Biotin = O=C1N[C@H]2[C@H](CS[C@H]2CCCCC(=O)*)N1; Ahx = NCCCCCC(=O)O

Assays:
in vitro = settings: African green monkey
HSV-1 KOS mutant hrR3 [1] = experiment: LacZ+ virus (hrR3) entry assay with pre-adsorbed virus (entry block); assay type: cell-based
Method: LacZ^+ virus (hrR3) entry assay: Confluent Vero cell cultures in 96-well microtiter plates were switched to Hepes-buffered serum-free DMEM, cooled on ice to 4° C. for 30 min, and infected with hrR3 for 1 hour at 4° C. in 40 μL of medium. Unattached virus was removed by rinsing with ice-cold medium. Treatments with antiviral peptide SEQ ID NO:1, referred to as EB, or a control peptide which comprised the RRKK tetra-peptide (SEQ ID NO:16) attached to a scrambled version of the membrane transiting peptide RRKKLAALPLVLAAPLAVLA (SEQ ID NO:17) (referred to as EBX), or mock-treatments with peptide-free medium were carried out in serum-free DMEM as indicated. Virus entry was initiated by transferring cultures to 37° C. To inactivate any remaining extracellular virus, cultures were rinsed with PBS and exposed to low pH citrate buffer (40 mM citric acid, 10 mM KCl, 135 mM NaCl, pH 3.0, according to Highlander et al., J. Virol. 61:3356 (1987), for 1 min at 23° C. The citrate was rinsed off with PBS and cultures were maintained in serum-supplemented DMEM until they were fixed with 0.5% gluteraldehyde in 5×PBS for 30 min at 23° C., stained for β-galactosidase activity for 1 hour or overnight at 23° C. with X-gal (Fisher Biotech; BP1615-1) in 1×PBS containing […], 1.3 mM K4Fe(CN)6, and 1.3 mM K3Fe(CN)6, and scored for the presence of blue […] cells.
In these studies, the hrR3 virus was pre-adsorbed to cells for 1 hour at 4° C. before ice cold 25 μM EB or EBX were added in serum-free DMEM. After an additional 1 hour at 4° C., cultures were shifted to 37° C. to initiate virus entry. At 15 min intervals following the temperature shift, any virus remaining outside the cells was inactivated by washing the cultures with low pH citrate buffer. Cultures were then rinsed and returned to peptide-free serum-supplemented DMEM until they were fixed and stained for β-galactosidase 8 hours after the temperature shift.
(§1) Two assays were used to assess the ability of the TAT peptides to inhibit infection of Vero cells with the hrR3 virus. In both assays, the virus was preadsorbed to cells at 4° C. and entry was initiated in the presence of peptide by shifting the cultures to a permissive temperature (30-37° C.). One hour later, the peptide was rinsed off. The entry blocking activity was measured in half of the cultures, in which any extracellular virus remaining after the peptide treatment was inactivated with low pH citrate buffer. The rest of the cultures were exposed to PBS instead of citrate buffer and used to measure virus inactivation. Virus inactivation depended on persistent effects of the peptide lasting for a period of eight hours. At the end of that period, all cultures were fixed and infected cells were detected by staining with X-gal.
(§2) Virus (m.o.i.=0.025) was preadsorbed to Vero cells for 1 h at 4° C. before cultures were exposed to TAT-C (FIG. 15A), bTAT-9X (FIG. 15B), or n50,51TAT-C (FIGS. 15C, 15D) for 1 h at 33 (FIGS. 15A, 15B), 31 (FIG. 15C), or 37° C. (FIG. 15D). […] Inhibition of entry was measured in the citrate-treated cultures, in which any remaining external virus was inactivated immediately following exposure to peptide (●). Persistent virus inactivation lasting, at least in part, for the 8 h period following exposure to peptide, was measured in the PBS-treated cultures (◯). The IC50s measured in these experiments are included in Table 5.

HSV-1 KOS mutant hrR3 [2] = experiment: Inactivation of pre-adsorbed virus (virus inactivation); assay type: cell-based; settings: 33° C.; read-out: Virus Inactivation IC50 (pre-adsorbed virus)
Method: as §1, §2

HSV-1 KOS mutant hrR3 [3] = settings: read-out: post-entry effects IC50; peptide added after citrate treatment, 8 h
[4] = system: Vero, HeLa, CV-1PD, TM-1, DP-9, CEMx174, NIKS, W12E cells; experiment: MTS assay, eight cell lines; settings: eight cell lines
hrR3 = experiment: Virucidal assay; assay type: cell-based, HSV-1
Method: […] The treated virus was diluted 200-fold with serum-supplemented DMEM and assayed for infectivity approximately 1 hour later in microtiter wells seeded with Vero cells (3.5×10^4 cells/well) 1 d earlier. Forty or 100 microliter volumes of diluted virus were adsorbed for 1 or 2 h at 37° C. and lacZ^+ cells were scored 8 hours later. In some experiments, aliquots of diluted virus were first dialyzed (Spectra/Por; MWCO 12-14,000) overnight at 4° C. against a 60-fold excess volume of Hepes-buffered serum-supplemented DMEM or forced by syringe through 0.22 μm membranes (Millex-GV; Millipore) before the remaining infectious virus was assayed.

[5] = 33° C., read-out: Entry Block IC50

Compound: CC(C)C[C@H](NC(=O)[C@H](C)NC(=O)[C@H](CC(C)C)NC(=O)[C@H](CC(C)C)NC(=O)[C@@H](NC(=O)[C@H](C)NC(=O)[C@@H]1CCCN1C(=O)[C@H](CC(C)C)NC(=O)[C@H](CC(C)C)NC(=O)[C@H](C)NC(=O)[C@@H](NC(=O)[C@H](C)NC(=O)[C@H](C)NC(=O)[C@H](CCCCN)NC(=O)[C@H](CCCCN)NC(=O)[C@H](CCCNC(=N)N)NC(=O)[C@H](CCCNC(=N)N)NC(=O)CCCCCNC(=O)CCCC[C@@H]1SC[C@@H]2NC(=O)N[C@@H]21)C(C)C)C(C)C)C(=O)N[C@@H](CC(C)C)C(=O)N[C@@H](C)C(=O)N1CCC[C@H]1C(=O)O [bEB] ({Biotin-Ahx}-RRKKAAVALLPAVLLALLAP-OH)
- IC50 (in vitro): 100 µM

Compound: CC(C)C[C@H](NC(=O)CCCCCNC(=O)CCCC[C@@H]1SC[C@@H]2NC(=O)N[C@@H]21)C(=O)N[C@@H](C)C(=O)N[C@@H](C)C(=O)N[C@@H](CC(C)C)C(=O)N1CCC[C@H]1C(=O)N[C@@H](CC(C)C)C(=O)N[C@H](C(=O)N[C@@H](CC(C)C)C(=O)N[C@@H](C)C(=O)N[C@@H](C)C(=O)N1CCC[C@H]1C(=O)N[C@@H](CC(C)C)C(=O)N[C@@H](C)C(=O)N[C@H](C(=O)N[C@@H](CC(C)C)C(=O)N[C@@H](C)C(=O)N1CCC[C@H]1C(=O)NCC(=O)N[C@@H](CCCNC(=N)N)C(=O)N[C@@H](CCCCN)C(=O)N[C@@H](CCCCN)C(=O)N[C@@H](CCCNC(=N)N)C(=O)N[C@@H](CCCNC(=N)N)C(=O)N[C@@H](CCC(N)=O)C(=O)N[C@@H](CCCNC(=N)N)C(=O)N[C@@H](CCCNC(=N)N)C(=O)N[C@@H](CCCNC(=N)N)C(=O)N[C@@H](CS)C(N)=O)C(C)C)C(C)C [b17TAT-C] ({Biotin-Ahx}-LAALPLVLAAPLAVLAPGRKKRRQRRRC-NH2)
- IC50 (HSV-1 KOS mutant hrR3 [1]; [5]): 5.4 µM
- IC50 (HSV-1 KOS mutant hrR3 [2]): 9.4 µM
- IC50 (in vitro): ~200 µM

Compound: CC(C)C[C@H](NC(=O)CCCCCNC(=O)CCCC[C@@H]1SC[C@@H]2NC(=O)N[C@@H]21)C(=O)N[C@@H](C)C(=O)N[C@H](C(=O)N[C@@H](CC(C)C)C(=O)N[C@@H](C)C(=O)N1CCC[C@H]1C(=O)NCC(=O)N[C@@H](CCCNC(=N)N)C(=O)N[C@@H](CCCCN)C(=O)N[C@@H](CCCCN)C(=O)N[C@@H](CCCNC(=N)N)C(=O)N[C@@H](CCCNC(=N)N)C(=O)N[C@@H](CCC(N)=O)C(=O)N[C@@H](CCCNC(=N)N)C(=O)N[C@@H](CCCNC(=N)N)C(=O)N[C@@H](CCCNC(=N)N)C(=O)N[C@@H](CS)C(N)=O)C(C)C [b6TAT-C, b-LAVLAPGRKKRRQRRRC-amide] ({Biotin-Ahx}-LAVLAPGRKKRRQRRRC-NH2)
- IC50 (HSV-1 KOS mutant hrR3 [1]; [5]): 5.3 µM
- IC50 (HSV-1 KOS mutant hrR3 [2]): 25 µM
- IC50 (HSV-1 KOS mutant hrR3 [3]): 190 µM

Compound: CC[C@H](C)[C@H](NC(=O)[C@H](CCCCN)NC(=O)[C@@H](NC(=O)[C@H](CCC(N)=O)NC(=O)[C@H](CCCNC(=N)N)NC(=O)CCCCCNC(=O)CCCC[C@@H]1SC[C@@H]2NC(=O)N[C@@H]21)[C@@H](C)CC)C(=O)N[C@@H](Cc1ccccc1)C(=O)N[C@@H](Cc1ccccc1)C(=O)N1CCC[C@H]1C(=O)N[C@@H](CC(N)=O)C(=O)N[C@@H](CCCNC(=N)N)C(=O)N[C@@H](CCCNC(=N)N)C(=O)N[C@@H](CCSC)C(=O)N[C@@H](CCCCN)C(=O)N[C@@H](Cc1ccccc1)C(=O)N[C@@H](CCCCN)C(=O)N[C@@H](CCCCN)C(N)=O [bHOMFF, b - RQIKI F FPNRRMK F KK-amide] ({Biotin-Ahx}-RQIKIFFPNRRMKFKK-NH2)
- IC50 (in vitro): > 100 µM
- cytotoxicity to cells (MTS), overall [4]: generally not cytotoxic

Compound: CC(C)C[C@H](NC(=O)[C@@H](NC(=O)[C@H](C)NC(=O)[C@H](CC(C)C)NC(=O)[C@@H]1CCCN1C(=O)[C@H](C)NC(=O)[C@H](C)NC(=O)[C@H](CC(C)C)NC(=O)[C@@H](NC(=O)[C@H](CC(C)C)NC(=O)[C@@H]1CCCN1C(=O)[C@H](CC(C)C)NC(=O)[C@H](C)NC(=O)[C@H](C)NC(=O)[C@H](CC(C)C)NC(=O)[C@@H]1CCCN1C(=O)[C@H](CCCNC(=N)N)NC(=O)[C@H](CCCNC(=N)N)NC(=O)[C@H](CCCNC(=N)N)NC(=O)[C@H](CCC(N)=O)NC(=O)[C@H](CCCNC(=N)N)NC(=O)[C@H](CCCNC(=N)N)NC(=O)[C@H](CCCCN)NC(=O)[C@H](CCCCN)NC(=O)[C@H](CCCNC(=N)N)NC(=O)CNC(=O)[C@H](Cc1ccc(O)cc1)NC(=O)CCCCCNC(=O)CCCC[C@@H]1SC[C@@H]2NC(=O)N[C@@H]21)C(C)C)C(C)C)C(=O)N[C@@H](C)C(=O)O [bTAT-17] ({Biotin-Ahx}-YGRKKRRQRRRPLAALPLVLAAPLAVLA-OH)
- IC50 (HSV-1 KOS mutant hrR3 [1]; [5]): 2.4 µM
- IC50 (HSV-1 KOS mutant hrR3 [2]): 6.6 µM
- IC50 (in vitro): ~200 µM

Compound: CC(C)C[C@H](NC(=O)[C@@H](NC(=O)[C@H](C)NC(=O)[C@H](CC(C)C)NC(=O)[C@@H]1CCCN1C(=O)[C@H](C)NC(=O)[C@H](C)NC(=O)[C@H](CC(C)C)NC(=O)[C@@H](NC(=O)[C@H](CC(C)C)NC(=O)[C@@H]1CCCN1C(=O)[C@H](CC(C)C)NC(=O)[C@H](C)NC(=O)[C@H](C)NC(=O)[C@H](CC(C)C)NC(=O)[C@@H]1CCCN1C(=O)[C@H](CCCNC(=N)N)NC(=O)[C@H](CCCNC(=N)N)NC(=O)[C@H](CCCNC(=N)N)NC(=O)[C@H](CCC(N)=O)NC(=O)[C@H](CCCNC(=N)N)NC(=O)[C@H](CCCNC(=N)N)NC(=O)[C@H](CCCCN)NC(=O)[C@H](CCCCN)NC(=O)[C@H](CCCNC(=N)N)NC(=O)CN)C(C)C)C(C)C)C(=O)N[C@@H](C)C(=O)O [TAT-17] (H-GRKKRRQRRRPLAALPLVLAAPLAVLA-OH)
- IC50 (HSV-1 KOS mutant hrR3 [1]; [5]): 2.4 µM
- IC50 (HSV-1 KOS mutant hrR3 [2]): 8.3 µM
- IC50 (in vitro): ~200 µM

Compound: N=C(N)NCCC[C@H](NC(=O)CNC(=O)CCCCCNC(=O)CCCC[C@@H]1SC[C@@H]2NC(=O)N[C@@H]21)C(=O)N[C@@H](CCCCN)C(=O)N[C@@H](CCCCN)C(=O)N[C@@H](CCCNC(=N)N)C(=O)N[C@@H](CCCNC(=N)N)C(=O)N[C@@H](CCC(N)=O)C(=O)N[C@@H](CCCNC(=N)N)C(=O)N[C@@H](CCCNC(=N)N)C(=O)N[C@@H](CCCNC(=N)N)C(=O)N[C@@H](CS)C(N)=O [bTAT-C, b-GRKKRRQRRRC-amide]
- IC50 (HSV-1 KOS mutant hrR3 [1]; [5]): 5.8 µM
- IC50 (HSV-1 KOS mutant hrR3 [2]): 27 µM
- IC50 (HSV-1 KOS mutant hrR3 [3]): 175 µM

Compound: b - KLALKLALKALKAALKLA-amide ({code b}-KLALKLALKALKAALKLA-NH2; SMILES CC(C)C[C@H](NC(=O)[C@H](C)NC(=O)[C@H](CCCCN)NC(=O)[C@H](CC(C)C)NC(=O)[C@H](C)NC(=O)[C@H](CC(C)C)NC(=O)[C@H](CCCCN)NC(=O)[C@H](CC(C)C)NC(=O)[C@H](C)NC(=O)[C@H](CC(C)C)NC(=O)[C@H](CCCCN)NC(=O)CCCCCNC(=O)CCCC[C@@H]1SC[C@@H]2NC(=O)N[C@@H]21)C(=O)N[C@@H](CCCCN)C(=O)N[C@@H](C)C(=O)N[C@@H](C)C(=O)N[C@@H](CC(C)C)C(=O)N[C@@H](CCCCN)C(=O)N[C@@H](CC(C)C)C(=O)N[C@@H](C)C(N)=O) [bKLAd11,12]
- IC50 (HSV-1 KOS mutant hrR3 [1]; read-out: Entry Blocking Activity IC50): 23 µM
- IC50 (hrR3; 4° C., read-out: Virucidal Activity 4° C. IC50): 300 µM
- IC50 (hrR3; 37° C., read-out: Virucidal Activity 37° C. IC50): 61 µM
